Tests used:
Assay in all cases: relative viability (nuclei count vs DMSO), 5 days (fraction); higher = more cells survive
[1] = compound: Nc1nc(Nc2ccc3c(c2)CC[C@@H](N2CCCC2)CC3)nn1-c1cc2c(nn1)-c1ccccc1CCC2 [Bemcentinib] + CC1(C)CCC(c2ccc(Cl)cc2)=C(CN2CCN(c3ccc(C(=O)NS(=O)(=O)c4ccc(N[C@H](CCN5CCOCC5)CSc5ccccc5)c(S(=O)(=O)C(F)(F)F)c4)cc3)CC2)C1 [Navitoclax] (partner 0.5 µM)
Summary of the method: (§1)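 Five library-drug doses in √10 steps were combined with a fixed anchor-drug dose, or a single drug was given alone, by pin tool to lung cancer cell lines in 1536-well plates the day after seeding. Nuclei were stained and counted after 5 days. Relative viability is the nuclei count in treated wells over that in vehicle wells, taken as the median of duplicate plates.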

[2] = compound: CC1=CC=C(C=C1)C(=O)CN2C3=C(CCCC3)SC2=N [Pifithrin_alpha] + C[C@@H](Oc1cc(-c2cnn(C3CCNCC3)c2)cnc1N)c1c(Cl)ccc(F)c1Cl [Crizotinib] (partner 1 µM)
Summary of the method: as §1

[3] = compound: Nc1nc(Nc2ccc3c(c2)CC[C@@H](N2CCCC2)CC3)nn1-c1cc2c(nn1)-c1ccccc1CCC2 [Bemcentinib] + O=C(c1cc(Cc2n[nH]c(=O)c3ccccc23)ccc1F)N1CCN(C(=O)C2CC2)CC1 [Olaparib] (partner 8 µM)
Summary of the method: as §1

[4] = compound: CC1=CC=C(C=C1)C(=O)CN2C3=C(CCCC3)SC2=N [Pifithrin_alpha] + O=C(CCCCCCC(=O)Nc1ccccc1)NO [Vorinostat] (partner 1 µM)
Summary of the method: as §1

| Cell Line | relative viability ([1]; first compound 0.04 µM) | relative viability ([1]; first compound 0.1265 µM) | relative viability ([1]; first compound 0.4 µM) | relative viability ([1]; first compound 1.265 µM) | relative viability ([1]; first compound 4 µM) | relative viability ([2]; first compound 1 µM) | relative viability ([2]; first compound 3.162 µM) | relative viability ([2]; first compound 10 µM) | relative viability ([2]; first compound 31.62 µM) | relative viability ([2]; first compound 100 µM) | relative viability ([3]; first compound 0.04 µM) | relative viability ([3]; first compound 0.1265 µM) | relative viability ([3]; first compound 0.4 µM) | relative viability ([3]; first compound 1.265 µM) | relative viability ([3]; first compound 4 µM) | relative viability ([4]; first compound 1 µM) | relative viability ([4]; first compound 3.162 µM) | relative viability ([4]; first compound 10 µM) | relative viability ([4]; first compound 31.62 µM) | relative viability ([4]; first compound 100 µM) |
| --- | --- | --- | --- | --- | --- | --- | --- | --- | --- | --- | --- | --- | --- | --- | --- | --- | --- | --- | --- | --- |
| NCI-H3122 | 1.01 | 1.06 | 1.02 | 1 | 1.03 | 0.288 | 0.323 | 0.291 | 0.296 | 0.321 | 0.651 | 0.652 | 0.637 | 0.678 | 0.68 | 0.878 | 0.978 | 1.03 | 0.828 | 0.898 |
| NCI-H2009 | 1.12 | 1.16 | 1.22 | 1.14 | 1.21 | 0.963 | 1.03 | 0.955 | 0.679 | 0.857 | 0.651 | 0.778 | 0.734 | 0.698 | 0.697 | 0.697 | 0.715 | 0.601 | 0.399 | 0.57 |
| HCC-827 | 1.03 | 1.04 | 1.07 | 0.957 | 1.02 | 0.87 | 0.928 | 0.875 | 0.693 | 0.82 | 0.669 | 0.691 | 0.554 | 0.623 | 0.625 | 0.156 | 0.894 | 0.765 | 0.709 | 0.787 |
| LXF-289 | 0.955 | 0.914 | 0.979 | 1 | 0.961 | 0.878 | 0.813 | 0.805 | 0.696 | 0.788 | 1.13 | 1.16 | 1.13 | 1.06 | 1.04 | 0.718 | 0.805 | 0.79 | 0.662 | 0.782 |
